Some results are limits rather than exact numbers.

The test system of one assay is genotype A, "Long" strain RSV. In words: RSV-A assay (CPE protection in Hep-2 cells, ATPlite readout). The class given is cell-based, Human respiratory syncytial virus (HRSV). To be noted: human respiratory syncytial virus, RSV-A Long strain, MOI 0.1, CPE protection, read-out: Human RSV-A (“Long”) EC50. The method in brief: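 Hep-2, 8,000 cells/well, MOI 0.1 (PFU- or TCID50-based); 2-fold compound series, duplicates; 5 d incubation; ATPlite luminescence readout; EC50.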
(In general: ATP-based viability assays read luminescence as a measure of living cells.)
On to `COc1cc(C(=O)NC[C@@](O)(c2cc3c(c(-c4ccc5c(c4)OC(F)(F)C5(F)F)n2)OC[C@]3(C)C(N)=O)C2CC2)cc2cn(C3CC3)nc12` [Example 1237], for which the EC50 was above 200 nM.
Still for that read-out and setting: next, `COc1cc(C(=O)NC[C@](O)(c2cc3c(c(-c4cc(Cl)ccc4Cl)n2)OC[C@]3(C)C(N)=O)C(F)(F)F)cc2cn(C3CC3)nc12` [Example 1255]: below 200 nM; `Cc1cnc2c(OC(F)F)cc(C(=O)NC[C@](O)(c3cc4c(c(-c5ccc(F)c(Br)c5F)n3)OC[C@]4(C)C(N)=O)C3CC3)cc2c1` [Example 1207]: below 200 nM; `COc1cc(C(=O)NC[C@](O)(c2cc3c(c(-c4cc(Cl)c(F)cc4Cl)n2)OC[C@]3(C)C(N)=O)C2CC2)cc2cn(C3CC3)nc12` [Example 1275]: below 200 nM.
Turning to `COc1cc(C(=O)NC[C@](O)(c2cc3c(c(-c4cc(F)cc(Cl)c4F)n2)OC[C@]3(C)C(N)=O)C(F)(F)F)cc2cn(C3CC3)nc12` [Example 1242], the EC50 was below 200 nM.
In the case of `COc1cc(C(=O)NC[C@](O)(c2cc3c(c(-c4ccc5c(c4)OC(F)(F)O5)n2)OC[C@]3(C)C(N)=O)C2CC2)cc2sc(C3CC3)nc12` [Example 1293], the EC50 is below 200 nM.
As for `COc1cc(C(=O)NC[C@@](O)(c2cc3c(c(-c4ccc(C5CC5)cc4)n2)OC[C@]3(C)C(N)=O)C(F)(F)F)cc2cn(C3CC3)nc12` [Example 892], the EC50 is above 200 nM.
Turning to `[2H]c1nc2c(OC)cc(C(=O)NC[C@](O)(c3cc4c(c(-c5cc(Cl)c(F)cc5F)n3)OC[C@]4(C)C(N)=O)C3CC3)cc2cc1Br` [Example 1216], the EC50 is below 200 nM.
Still for that read-out and setting: under `COc1cc(C(=O)NC[C@](O)(c2cc3c(c(-c4ccc5oc(C)nc5c4)n2)OC[C@]3(C)C(N)=O)C(F)(F)F)cc2cn(C3CC3)nc12` [Example 902] stands above 200 nM; under `COc1cc(C(=O)NC[C@](O)(c2cc3c(c(-c4cc(F)cc(F)c4Cl)n2)OC[C@]3(C)C(N)=O)C(F)(F)F)cc2cn(C3CC3)nc12` [Example 1261], below 200 nM.
Take `COc1cc(C(=O)NC[C@](O)(c2cc3c(c(-c4ccc(F)cc4)n2)OC[C@]3(C)C(N)=O)C(F)(F)F)cn2nc(N)cc12` [Example 881]: the EC50 was below 200 nM.
The same measure, in the same setting: next, `COc1cc(C(=O)NC[C@](O)(c2cc3c(c(-c4c(F)ccc(F)c4F)n2)OC[C@]3(C)C(N)=O)C2CC2)cc2cn(C3CC3)nc12` [Example 1274]: below 200 nM; `COc1cc(C(=O)NCC(O)(c2cc3c(c(-c4cc(F)c(Cl)c(F)c4)n2)OC[C@]3(C)C(N)=O)C(F)(F)F)cc2cn(C3CC3)nc12` (stereo partly drawn) [Example 1245]: below 200 nM; `COc1ccc(-c2nc([C@@](O)(CNC(=O)c3cc(OC)c4nn(C5CC5)cc4c3)C(F)(F)F)cc3c2OC[C@]3(C)C(N)=O)cc1OC` [Example 906]: below 200 nM.
Same read-out and setting: under `COc1cc(C(=O)NC[C@](O)(c2cc3c(c(-c4ccc5c(c4)OC(F)(F)C5(F)F)n2)OC[C@]3(C)C(N)=O)C2CC2)cc2cn(C3CC3)nc12` [Example 1238] stands below 200 nM.
Same read-out and setting: next, `COc1cc(C(=O)NC[C@](O)(c2cc3c(c(N4CCCC(F)(F)C4)n2)OC[C@]3(C)C(N)=O)C(F)(F)F)cc2cn(C3CC3)nc12` [Example 1271]: below 200 nM; `C[C@]1(C(N)=O)COc2c1cc([C@@](O)(CNC(=O)c1cc(OC3CC3)c3nn(C(F)F)cc3c1)C1CC1)nc2-c1cc(Cl)ccc1F` [Example 1199]: below 200 nM; `COc1cc(C(=O)NC[C@](O)(c2cc3c(c(-c4cccc(Cl)c4Cl)n2)OC[C@]3(C)C(N)=O)C(F)(F)F)cc2cn(C3CC3)nc12` [Example 1253]: below 200 nM.

The assay is the same for the next values; noted with them: human respiratory syncytial virus, genotype A “Long” strain RSV, MOI 0.1, CPE protection, read-out: Human RSV-A (“Long”).
Consider `COc1cc(C(=O)NC[C@](O)(c2cc3c(c(-c4ccc(F)cc4)n2)OC[C@]3(C(N)=O)C2CC2)C(F)(F)F)cc2cccnc12` [Example 269], for which the EC50 is above 200 nM.
As to `COc1cc(C(=O)NC[C@](O)(c2cc3c(c(-c4ccc(F)cc4)n2)OC[C@@]3(CF)C(N)=O)C(F)(F)F)ccc1OC1CC1` [Example 298], the EC50 is above 200 nM.
The same measure, in the same setting: next, `COc1cc(C(=O)NC[C@](O)(c2cc3c(c(-c4ccc(F)cc4)n2)OC[C@]3(CF)C(N)=O)C(F)(F)F)cc2cc(Cl)c(C)nc12` [Example 285]: below 200 nM; `C[C@@H](O)COc1ccc(C(=O)NC[C@](O)(c2cc3c(c(-c4ccc(F)cc4)n2)OC[C@]3(C)C(N)=O)C2CC2)cc1OC1CC1` [Example 317]: below 200 nM; `C[C@]1(C(N)=O)COc2c1cc([C@@](O)(CNC(=O)c1ccc3cc[nH]c3c1)C(F)(F)F)nc2-c1ccc(F)cc1` [Example 196]: above 200 nM.
For `Cc1cccc2nc(C(=O)NC[C@](O)(c3cc4c(c(-c5ccc(F)cc5)n3)OC[C@]4(C)C(N)=O)C(F)(F)F)cn12` [Example 807], the EC50 is above 200 nM.
On to `C[C@]1(C(N)=O)COc2c1cc([C@@](O)(CNC(=O)c1cc[nH]c1)C(F)(F)F)nc2-c1ccc(F)cc1` [Example 349], for which the EC50 is above 200 nM.
On the same count and under the same terms, next, `Cc1ccc2cc(C(=O)NC[C@](O)(c3cc4c(c(-c5ccc(F)c(Cl)c5)n3)OC[C@]4(C)C(N)=O)C(F)(F)F)cc(N3CCCC3=O)c2n1` [Example 39]: above 200 nM; `NC(=O)[C@@]1(CF)COc2c1cc([C@@](O)(CNC(=O)c1cc(OC3CC3)c3ncccc3c1)C(F)(F)F)nc2-c1ccc(F)cc1` [Example 297]: below 200 nM.
The same measure, in the same setting: next, `COc1cc(C(=O)NC[C@](O)(c2cc3c(c(-c4cnc(C#N)c(Cl)c4)n2)OC[C@]3(C)C(N)=O)C(F)(F)F)cc2cc(Cl)c(C)nc12` [Example 584]: below 200 nM.
For the compound `COc1cc(C(=O)NC[C@](O)(c2cc3c(c(-c4ccc(F)cc4)n2)OC[C@]3(CF)C(N)=O)C(F)(F)F)ccc1OC1CC1` [Example 299], the EC50 was below 200 nM.
As for `C[C@]1(C(N)=O)COc2c1cc([C@@](O)(CNC(=O)c1cc3cn[nH]c3cc1Cl)C(F)(F)F)nc2-c1ccc(F)cc1` [Example 106], the EC50 was above 200 nM.
Still for that read-out and setting: under `COc1cc(C(=O)NC[C@](O)(c2cc3c(c(-c4ccc(F)cc4)n2)OCC3(CF)C(N)=O)C(F)(F)F)cc2cn(C3CC3)nc12` (stereo partly drawn) [Example 295] stands below 200 nM.
For `Cc1cc2nc(C(=O)NC[C@](O)(c3cc4c(c(-c5ccc(F)cc5)n3)OC[C@]4(C)C(N)=O)C(F)(F)F)cc(C)n2n1` [Example 181], the EC50 was above 200 nM.
Take `COc1cc(C(=O)NC[C@](O)(c2cc3c(c(-c4ccc(F)cc4)n2)OC[C@]3(C)C(N)=O)C(F)(F)F)nc2cc(C3CC3)nn12` [Example 192]: the EC50 was above 200 nM.
Still for that read-out and setting: next, `Cc1cc(C(=O)NC[C@](O)(c2cc3c(c(-c4ccc(F)cc4)n2)OC[C@]3(C)C(N)=O)C(F)(F)F)no1` [Example 381]: above 200 nM.
Take `C[C@]1(C(N)=O)COc2c1cc([C@@](O)(CNC(=O)c1cc3ccc(C(F)(F)F)cc3[nH]1)C(F)(F)F)nc2-c1ccc(F)cc1` [Example 338]: the EC50 is above 200 nM.
Regarding `C[C@]1(C(N)=O)COc2c1cc([C@@](O)(CNC(=O)c1cnn(C3CC3)c1)C(F)(F)F)nc2-c1ccc(F)cc1` [Example 461], the EC50 was below 200 nM.
The same measure, in the same setting: next, `C[C@]1(C(N)=O)COc2c1cc([C@@](O)(CNC(=O)c1c[nH]c3nccnc13)C(F)(F)F)nc2-c1ccc(F)cc1` [Example 351]: above 200 nM; `NC(=O)[C@]1(C2CC2)COc2c1cc([C@@](O)(CNC(=O)c1cc(OC3CC3)c3ncccc3c1)C(F)(F)F)nc2-c1ccc(F)cc1` [Example 271]: above 200 nM; `C[C@]1(C(N)=O)COc2c1cc([C@@](O)(CNC(=O)c1ccc3[nH]c(=O)oc3c1)C(F)(F)F)nc2-c1ccc(F)cc1` [Example 318]: below 200 nM.
Still for that read-out and setting: next, `C[C@]1(C(N)=O)COc2c1cc([C@@](O)(CNC(=O)c1n[nH]c3ccc(F)cc13)C(F)(F)F)nc2-c1ccc(F)cc1` [Example 397]: above 200 nM; `C[C@@H](O)COc1ccc(C(=O)NC[C@](O)(c2cc3c(c(-c4ccc(F)cc4)n2)OC[C@]3(C(N)=O)C2CC2)C(F)(F)F)cc1OC1CC1` [Example 279]: above 200 nM; `Cc1cncnc1C(=O)NC[C@](O)(c1cc2c(c(-c3ccc(F)cc3)n1)OC[C@]2(C)C(N)=O)C(F)(F)F` [Example 410]: above 200 nM.
Turning to `Cn1ccc(C(=O)NC[C@](O)(c2cc3c(c(-c4ccc(F)cc4)n2)OC[C@]3(C)C(N)=O)C(F)(F)F)n1` [Example 411], the EC50 is above 200 nM.
Still for that read-out and setting: next, `COc1cc(C(=O)NC[C@](O)(c2cc3c(c(-c4ccc(F)cc4)n2)OC[C@]3(C(N)=O)C2CC2)C(F)(F)F)ccc1OC1CC1` [Example 277]: above 200 nM; `Cn1cc(C(=O)NC[C@](O)(c2cc3c(c(-c4ccc(F)cc4)n2)OC[C@]3(C)C(N)=O)C(F)(F)F)c2ccccc21` [Example 373]: above 200 nM.
Same read-out and setting: next, `COc1cccc(-n2ccc(C(=O)NC[C@](O)(c3cc4c(c(-c5ccc(F)cc5)n3)OC[C@]4(C)C(N)=O)C(F)(F)F)n2)c1` [Example 213]: above 200 nM.
On the same count and under the same terms, under `CC(C)Oc1ccc2nc(C(=O)NC[C@](O)(c3cc4c(c(-c5ccc(F)cc5)n3)OC[C@]4(C)C(N)=O)C(F)(F)F)cn2c1` [Example 812] stands above 200 nM.
Take `COc1cccc(C(=O)NC[C@](O)(c2cc3c(c(-c4ccc(F)cc4)n2)OC[C@]3(C)C(N)=O)C(F)(F)F)c1F` [Example 427]: the EC50 is above 200 nM.
Still for that read-out and setting: under `CC[C@]1(C(N)=O)COc2c1cc([C@@](O)(CNC(=O)c1ccc(OC[C@@H](C)O)c(OC3CC3)c1)C(F)(F)F)nc2-c1ccc(F)cc1` [Example 242] stands below 200 nM.
Same read-out and setting: under `C[C@]1(C(N)=O)COc2c1cc([C@@](O)(CNC(=O)c1cc3c(OC(F)F)cccc3[nH]1)C(F)(F)F)nc2-c1ccc(F)cc1` [Example 211] stands below 200 nM.
`Cc1cnc2c(NC(=O)N(C)C3CC3)cc(C(=O)NC[C@](O)(c3cc4c(c(-c5ccc(F)cc5)n3)OC[C@]4(C)C(N)=O)C(F)(F)F)cc2c1` [Example 328]: the EC50 is below 200 nM.
